Values after ≈ are worked out from the molar mass of the structure shown.
Key:
Type in all cases: functional
[1] = system: Cryptococcus neoformans; experiment: In vitro antifungal activity against Cryptococcus neoformans ATCC 9011
[2] = system: Candida albicans; experiment: In vitro antifungal activity against Candida albicans ATCC 90028; activity expressed as minimum inhibitory concentration
[3] = system: Cryptococcus neoformans; experiment: In vitro antifungal activity against Cryptococcus neoformans ATCC 9011; activity expressed as minimum inhibitory concentration
[4] = system: Aspergillus fumigatus; experiment: In vitro antifungal activity against Aspergillus fumigatus TIMM1776; activity expressed as minimum inhibitory concentration
[5] = system: Saccharomyces cerevisiae; experiment: In vitro antifungal activity against Saccharomyces cerevisiae Y9; activity expressed as minimum inhibitory concentration
[6] = system: Candida albicans; experiment: In vitro antifungal activity against Candida albicans ATCC 90028
[7] = system: Saccharomyces cerevisiae; experiment: In vitro antifungal activity against Saccharomyces cerevisiae Y9
[8] = system: Aspergillus fumigatus; experiment: In vitro antifungal activity against Aspergillus fumigatus TIMM1776

| Structure (SMILES) | IC80 [1] | MIC [2] | MIC [3] | MIC [4] | MIC [5] | IC80 [6] | IC80 [7] | IC80 [8] |
| --- | --- | --- | --- | --- | --- | --- | --- | --- |
| C=C1/C=C(\C)[C@H](CC)OC(=O)[C@H](C)C(=O)[C@@](O)(CO)C/C(C)=C/[C@@H](C)C1 | 32 µg/mL (≈ 87.8 µM) | > 64 µg/mL | > 64 µg/mL | > 64 µg/mL | > 64 µg/mL | – | – | – |
| C=C1/C=C(\C)[C@H](CC)OC(=O)[C@H](C)C(=O)[C@@](O)(CO)C/C(Cl)=C/[C@@H](C)C1 | 0.15 µg/mL (≈ 0.39 µM) | > 64 µg/mL | 16 µg/mL (≈ 41.6 µM) | > 64 µg/mL | – | 64 µg/mL (≈ 166 µM) | – | – |
| C=C1/C=C(\C)[C@H](CC)OC(=O)[C@H](C)C(=O)[C@@](O)(CO)[C@H](OC)/C=C/[C@@H](C)C1 | – | > 64 µg/mL | > 64 µg/mL | > 64 µg/mL | – | – | – | – |
| C=C1/C=C(\C)[C@H](CC)OC(=O)[C@H](C)C(=O)[C@@](O)(CO)C/C=C/[C@@H](C)C1 | – | > 64 µg/mL | > 64 µg/mL | > 64 µg/mL | – | – | – | – |
| C=C1/C=C(\C)[C@H](CC)OC(=O)[C@H](C)C(=O)[C@@](O)(CO)C/C(OCC(F)(F)F)=C/[C@@H](C)C1 | – | > 64 µg/mL | 32 µg/mL (≈ 71.4 µM) | 64 µg/mL (≈ 143 µM) | – | – | – | – |
| C=C1/C=C(\C)[C@H](CC)OC(=O)[C@H](C)C(=O)[C@@](O)(CO)C/C(OC)=C/[C@@H](C)C1 | < 0.031 µg/mL | 4 µg/mL (≈ 10.5 µM) | 0.063 µg/mL (≈ 0.166 µM) | > 64 µg/mL | 1 µg/mL (≈ 2.63 µM) | 1 µg/mL (≈ 2.63 µM) | 0.5 µg/mL (≈ 1.31 µM) | – |
| C=C1/C=C(\C)[C@H](CC)OC(=O)[C@H](C)C(=O)[C@@](O)(CO)C/C(SC)=C/[C@@H](C)C1 | 0.063 µg/mL (≈ 0.159 µM) | 64 µg/mL (≈ 161 µM) | 0.5 µg/mL (≈ 1.26 µM) | > 64 µg/mL | 64 µg/mL (≈ 161 µM) | 16 µg/mL (≈ 40.3 µM) | 32 µg/mL (≈ 80.7 µM) | – |
| C=C1/C=C(\C)[C@H](CC)OC(=O)[C@H](C)C(=O)[C@@](O)(CO)[C@@H](OC)/C=C/[C@@H](C)C1 | – | > 64 µg/mL | > 64 µg/mL | > 64 µg/mL | – | – | – | – |
| C=C1/C=C(\C)[C@H](CC)OC(=O)[C@@H](C)C(=O)[C@@](O)(CO)C/C(OC)=C/[C@@H](C)C1 | – | > 64 µg/mL | > 64 µg/mL | > 64 µg/mL | > 64 µg/mL | – | – | – |
| C[C@@H]1[C@H](O)[C@@H](C)/C=C/C=C/C=C/C=C/C=C/C=C/C=C/[C@H](O[C@@H]2O[C@H](C)[C@@H](O)[C@H](N)[C@@H]2O)C[C@@H]2O[C@](O)(C[C@@H](O)C[C@@H](O)[C@H](O)CC[C@@H](O)C[C@@H](O)CC(=O)O[C@H]1C)C[C@H](O)[C@H]2C(=O)O [AMPHOTERICIN B] | – | 0.25 µg/mL (≈ 0.271 µM) | 0.25 µg/mL (≈ 0.271 µM) | 1 µg/mL (≈ 1.08 µM) | 0.25 µg/mL (≈ 0.271 µM) | – | – | – |
| OC(Cn1cncn1)(Cn1cncn1)c1ccc(F)cc1F [FLUCONAZOLE] | 8 µg/mL (≈ 26.1 µM) | – | – | – | – | 0.5 µg/mL (≈ 1.63 µM) | 8 µg/mL (≈ 26.1 µM) | > 64 µg/mL |

From ChEMBL document CHEMBL1137070, “Novel galbonolide derivatives as IPC synthase inhibitors: design, synthesis and in vitro antifungal activities” (2004)
